In patent US6476034B2, “Antiviral azaindole derivatives” (priority 2000, dated 2002):

System: single-round infectious HIV-1 reporter virus
Test: microbe, parasite or virus in culture
Format: cell-based
Settings: for EC50: Human immunodeficiency virus 1, HeLa-CD4/CCR5; for inhibition at 10 µM: Human immunodeficiency virus 1, HeLa-CD4/CCR5, 72 h, read-out: Average % inhibition at or <10 μM; for Average % inhibition at or <10 μM: HeLa CD4 CCR5 cells, luciferase expression 3 days (72 hours) after infection, compounds tested below 10 μM: % inhibition at 10 μM extrapolated with XLfit, mean of at least two experiments

Compound	EC50 [nM]	inhibition at 10 µM [%]	Average % inhibition at or <10 μM [%]
C=CCn1cc(C(=O)C(=O)N2CCN(C(=O)c3ccccc3)C[C@H]2C)c2cccnc21 [Compound 21b, (R)-N-(benzoyl)-3-methyl-N′-[(1-allyl-7-azaindol-3-yl)-oxoacetyl]-piperazine]	< 1000	95	–
COc1ccnc2[nH]cc(C(=O)C(=O)N3CCN(C(=O)c4ccccc4)C[C@@H]3C)c12 [Compound 17d, (S)-N-(benzoyl)-3-methyl-N′-[(4-methoxy-7-azaindol-3-yl)-oxoacetyl]-piperazine]	< 1000	98	–
CC1CN(C(=O)C(=O)c2c[nH]c3ncccc23)CCN1C(=O)c1ccccc1 (stereo not shown) [Compound 5e, N-(benzoyl)-2-methyl-N′-[(7-azaindol-3-yl)-oxoacetyl]-piperazine]	< 1000	80	–
C[C@@H]1CN(c2ccccn2)CCN1C(=O)C(=O)c1c[nH]c2ncccc12 [Compound 5k, (R)-N-(pyridin-2-yl)-3-methyl/N′-[(7-azaindol-3-yl)-oxoacetyl]-piperazine]	–	–	>99
CNc1ccnc2[nH]cc(C(=O)C(=O)N3CCN(C(=O)c4ccccc4)C[C@H]3C)c12 [Compound 17h, (R)-N-(benzoyl)-3-methyl-N′-[(4-methylamino-7-azaindol-3-yl)-oxoacetyl]-piperazine]	> 500	–	–
C[C@@H]1CN(C(=O)c2ccccc2)CCN1C(=O)C(=O)c1c[nH]c2ncccc12 [Compound 5a, (R)-N-(benzoyl)-3-methyl-N′-[(7-azaindol-3-yl)-oxoacetyl]-piperazine]	< 1000	> 99	–
COc1nccc2c(C(=O)C(=O)N3CCN(C(=O)c4ccccc4)C[C@H]3C)c[nH]c12 [Compound 5v, (R)-N-(benzoyl)-3-Methyl-N′-[(7-Methoxy-6-azaindol-3-yl)-oxoacetyl]-piperazine]	< 1000	> 99	–
Cc1ccnc2c(C(=O)C(=O)N3CCN(C(=O)c4ccccc4)C[C@H]3C)c[nH]c12 [Compound 5x, (R)-N-(benzoyl)-3-Methyl-N′-[(7-Methyl-4-azaindol-3-yl)-oxoacetyl]-piperazine]	< 1000	99	–
CCC1CN(C(=O)c2ccccc2)CCN1C(=O)C(=O)c1c[nH]c2ncccc12 (stereo not shown) [Compound 5g, N-(benzoyl)-3-ethyl-N′-[(7-azaindol-3-yl)-oxoacetyl]-piperazine]	< 1000	70	–
CC(C)C1CN(C(=O)C(=O)c2c[nH]c3ncccc23)CCN1C(=O)c1ccccc1 (stereo not shown) [Compound 5ac, N-(benzoyl)-2-iso-Propyl-N′-[(7-azaindol-3-yl)-oxoacetyl]-piperazine]	> 400	–	–
(R)-N-(benzoyl)-3-methyl-N′-[(4 or 6)-vinyl-7-azaindol-3-yl)-oxoacetyl]-piperazine [Compound 11c]	–	–	48
C[C@@H]1CN(C(=O)c2ccccc2)CCN1C(=O)C(=O)c1c[nH]c2nc(F)cc([N+](=O)[O-])c12 [Compound 10a, (R)-N-(benzoyl)-3-methyl-N′-[(4-nitro-6-fluoro-7-azaindol-3-yl)-oxoacetyl]-piperazine]	< 1000	> 99	–
C[C@@H]1CN(C(=O)c2ccccc2)CCN1C(=O)C(=O)c1c[nH]c2c(Cl)ccnc12 [Compound 5y, (R)-N-(benzoyl)-3-Methyl-N′-[(7-Chloro-4-azaindol-3-yl)-oxoacetyl]-piperazine]	< 1000	> 99	–
COc1cncc2[nH]cc(C(=O)C(=O)N3CCN(C(=O)c4ccccc4)CC3)c12 [Compound 39, N-(benzoyl)-N′-[(4-methoxy-6-azaindol-3-yl)-oxoacetyl]-piperazine]	< 1000	–	–
C[C@@H]1CN(C(=O)c2ccccc2)CCN1C(=O)C(=O)c1c[nH]c2nccc(Cl)c12 [Compound 9a, (R)-N-(benzoyl)-3-methyl-N′-[(4-chloro-7-azaindol-3-yl)-oxoacetyl]-piperazine]	< 1000	> 99	–
C[C@@H]1CN(C(=O)c2ccccc2)CCN1C(=O)C(=O)c1c[nH]c2c1c([N+](=O)[O-])cc[n+]2[O-] [Compound 15a, (R)-N-(benzoyl)-3-methyl-N′-[(4-nitro-7-oxide-7-azaindol-3-yl)-oxoacetyl]-piperazine]	–	–	70
C[C@@H]1CN(C(=O)c2ccccc2)CCN1C(=O)C(=O)c1c[nH]c2cccnc12 [Compound 5w, (R)-N-(benzoyl)-3-Methyl-N′-[(4-azaindol-3-yl)-oxoacetyl]-piperazine]	< 1000	98	–
CCC1CN(C(=O)C(=O)c2c[nH]c3ncccc23)CCN1C(=O)c1ccccc1 (stereo not shown) [Compound 5b, N-(benzoyl)-2-ethyl-N′-[(7-azaindol-3-yl)-oxoacetyl]-piperazine]	< 1000	90	–
CCOc1cc[n+]([O-])c2[nH]cc(C(=O)C(=O)N3CCN(C(=O)c4ccccc4)C[C@H]3C)c12 [Compound 16d, (R)-N-(benzoyl)-3-methyl-N′-[(4-ethoxy-7-oxide-7-azaindol-3-yl)-oxoacetyl]-piperazine]	–	–	88
O=C(C(=O)N1CCN(C(=O)c2ccccc2)CC1)c1c[nH]c2c(Cl)nccc12 [Compound 5t, N-(benzoyl)-N′-[(7-Chloro-6-azaindol-3-yl)-oxoacetyl]-piperazine]	< 1000	> 99	–
C[C@@H]1CN(C(=O)c2ccccc2)CCN1C(=O)C(=O)c1c[nH]c2nccc(O)c12 [Compound 5ah, (R)-N-(benzoyl)-3-methyl-N′-[(4-hydroxyl-7-azaindol-3-yl)-oxoacetyl]-piperazine]	> 5000	–	–
C[C@@H]1CN(C(=O)c2ccccc2)CCN1C(=O)C(=O)c1c[nH]c2ccncc12 [Compound 5m, (R)-N-(benzoyl)-3-methyl-N′-[(5-azaindol-3-yl)-oxoacetyl]-piperazine]	> 500	60	–
C[C@@H]1CN(C(=O)c2ccccc2)CCN1C(=O)C(=O)c1c[nH]c2cnccc12 [Compound 5r, (R)-N-(benzoyl)-3-Methyl-N′-[(6-azaindol-3-yl)-oxoacetyl]-piperazine]	< 1000	> 99	–
N-(pyridin-2-yl)-N′-[(7-azaindol-3-yl)-oxoacetyl]-piperazine [Compound 5j]	–	–	90
(R)-N-(benzoyl)-3-methyl-N′-[(4 or 6)-5phenyl-7-azaindol-3-yl)-oxoacetyl]-piperazine [Compound 11b]	–	–	85
(R)-N-(benzoyl)-3-methyl-N′-[(4 or 6)-methyl-7-azaindol-3-yl)-oxoacetyl]-piperazine [Compound 11a]	–	–	99
COc1ccnc2[nH]cc(C(=O)C(=O)N3CCN(C(=O)c4c(F)c(F)c(N=[N+]=[N-])c(F)c4F)C[C@H]3C)c12 [Compound 5n, (R)-N-(4-azido-2,3,5,6-tetra-fluorobenzoyl)-3-methyl-N′-[(4-methoxy-7-azaindol-3-yl)-oxoacetyl]-piperazine]	< 1000	93	–
